# Source: patent publication CN114767685A, “四氢叶酸在抑菌或者预防或治疗眼部疾病中的用途” (Peking University Third Hospital Peking University Third …, priority 2022, dated 2022)
# Columns and labels:
# Fusarium (镰刀菌) [1] = assay: Inhibition of Fusarium colony growth on solid medium with proline as sole nitrogen source (pro- medium); format: cell-based, Fusarium (CGMCC3.5840); conditions: 29℃, 72 h, Figure 2
# Fusarium (镰刀菌) [2] = assay: Inhibition of Fusarium on solid media with mixed amino acids as nitrogen source (simulated cornea); format: cell-based; conditions: THFA 10 mM, cultured as Example 1
# Fusarium (镰刀菌) [3] = assay: Fusarium growth curve (OD) in liquid amino acid media, 96-well plate; format: cell-based; conditions: THFA 10 mM, each amino acid group, 29℃, 72 h, Figure 5B-F
smiles,measurement,setting,value
"Nc1nc2c(c(=O)[nH]1)N[C@H](CNc1ccc(C(=O)N[C@@H](CCC(=O)O)C(=O)O)cc1)CN2 [THFA, 5,6,7,8-四氢叶酸]",correlation of degree of inhibition with THFA concentration,Fusarium (镰刀菌) [1]; THFA 0-20 mM,抑制程度与THFA浓度具有相关性
same,colony diameter,Fusarium (镰刀菌) [1]; THFA 5 mM,明显小于2.5mM、1.25mM和0mM组
same,colony diameter,Fusarium (镰刀菌) [1]; THFA 10 mM,均显著小于5mM组
same,colony diameter,Fusarium (镰刀菌) [1]; THFA 20 mM,均显著小于5mM组
same,inhibition of Fusarium growth,"Fusarium (镰刀菌) [1]; THFA 1.25, 2.5, 5, 10, 20 mM vs 0 mM",镰刀菌的生长受到明显抑制
same,inhibition of Fusarium growth,"Fusarium (镰刀菌) [2]; solid media with different mixed amino acid nitrogen sources (taurine, glutamine, glycine, proline), Figure 4",均能够显著抑制镰刀菌生长
same,colony pigment,"Fusarium (镰刀菌) [2]; solid media with different mixed amino acids, Figure 4B-D",色素明显减弱
same,"Fusarium growth (absorbance, OD, growth curve)",Fusarium (镰刀菌) [3],镰刀菌生长均明显下降
